In data set [1] the target is T1, hADSL (modern human adenylosuccinate lyase) (Homo sapiens, UniProt P30566).
T1 construct: gene ADSL; N-terminal thrombin-cleavable His tag (pET-14b), E. coli Rosetta2 (DE3); tag cut, but kept for the domain 3 mutants; homotetramer; Val429
T1 sequence (P30566 1-484): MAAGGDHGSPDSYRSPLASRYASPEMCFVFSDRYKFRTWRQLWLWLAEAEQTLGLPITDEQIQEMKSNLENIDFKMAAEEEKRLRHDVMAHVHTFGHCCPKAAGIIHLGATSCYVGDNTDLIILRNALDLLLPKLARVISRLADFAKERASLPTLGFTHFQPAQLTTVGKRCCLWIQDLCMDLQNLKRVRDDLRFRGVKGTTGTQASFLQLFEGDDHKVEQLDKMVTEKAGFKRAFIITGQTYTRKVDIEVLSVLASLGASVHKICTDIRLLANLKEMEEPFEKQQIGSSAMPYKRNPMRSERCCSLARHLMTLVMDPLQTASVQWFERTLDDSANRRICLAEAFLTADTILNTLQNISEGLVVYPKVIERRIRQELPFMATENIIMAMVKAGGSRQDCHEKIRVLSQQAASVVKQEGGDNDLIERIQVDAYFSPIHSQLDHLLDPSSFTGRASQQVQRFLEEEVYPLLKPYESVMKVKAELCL
The data set is described as follows: small angle X-ray scattering. To be noted: 1 mM product(s), with fumarate; 20 °C; no curve change with AICAR alone. Type of data set: binding.

Data set [2] deals with T1, hADSL (modern human adenylosuccinate lyase). Put plainly: isothermal titration calorimetry. Format: binding. A general note: Isothermal titration calorimetry measures the heat released or taken up as one component is titrated into another.
The target of data set [3] is T2, nADSL (Neanderthal adenylosuccinate lyase).
T2 construct: gene ADSL; Neanderthal (ancestral Ala429) variant, equals human ADSL with V429A; N-terminal thrombin-cleavable His tag (pET-14b), cut; E. coli Rosetta2 (DE3); homotetramer
Put plainly: isothermal titration calorimetry. To be noted: 10 mM HEPES pH 7.5, 100 mM NaCl, 1 mM DTT, 20 °C; 90 µM protein in cell. Type of data set: binding, Homo sapiens neanderthalensis.

The test system of data set [4] is T2, nADSL (Neanderthal adenylosuccinate lyase). The data set is described as follows: absorbance at […] nm, SAMP breakdown. Format: biochemical, Homo sapiens neanderthalensis. To be noted: forward reaction, room temperature; positive cooperativity, Hill coefficient 1.8; read-out: K0.5.
Data set [5] has as its target T1, hADSL (modern human adenylosuccinate lyase). Put plainly: absorbance at […] nm, SAMP formation. Format: biochemical. Particulars: reverse reaction, 1 mM AMP, room temperature; Michaelis-Menten fit.
Data set [6] deals with T2, nADSL (Neanderthal adenylosuccinate lyase). The data set is described as follows: absorbance at […] nm, SAMP formation. Format: biochemical, Homo sapiens neanderthalensis. Particulars: reverse reaction, 1 mM AMP, room temperature; Michaelis-Menten fit.
Substrate in the data set “purified protein”: O=C(O)C[C@H](Nc1ncnc2c1ncn2[C@@H]1O[C@H](COP(=O)(O)O)[C@@H](O)[C@H]1O)C(=O)O
The data set is described as follows: purified protein. Format: biochemical, Homo sapiens. Particulars: room temperature.

Data set [7] concerns the molecule itself. The data set is described as follows: SEC; Superdex 200 in 10 mM HEPES pH 7.5, 100 mM NaCl, 1 mM DTT; last step of the purification; single peak. A general note: SEC sorts molecules by how far they enter the pores of the column.
Data set [8] deals with the molecule itself. Put plainly: crystal structure; nADSL apo (1.7 Å), with AMP/fumarate (2.3 Å) and with AICAR/fumarate; vapour diffusion, 10 mg/mL protein; homotetramer.
Where [9] appears, read: His tag not cleaved, 0.01 mg/mL enzyme, cooperative model fit.

Substitutions are numbered along the chain they refer to. Names and notes keep the numbering of the source.

Broadly, the Kd is the constant that tells how readily two partners part at equilibrium. Read a high Kd as a looser complex. Broadly, the stoichiometry N is a count of units in the complex or per binding partner.

Take `NC(=O)c1ncn([C@@H]2O[C@H](COP(=O)(O)O)[C@@H](O)[C@H]2O)c1N` [AICAR]: the “small angle X-ray scattering” value in data set [1] was “addition of both AMP/fumarate or AICAR/fumarate to the protein results in a similar altered scattering”. Take `Nc1ncnc2c1ncn2[C@@H]1O[C@H](COP(=O)(O)O)[C@@H](O)[C@H]1O` [AMP]: the Kd in data set [2] and in data set [3] was approximately 25 µM in each case. Regarding `O=C(O)C[C@H](Nc1ncnc2c1ncn2[C@@H]1O[C@H](COP(=O)(O)O)[C@@H](O)[C@H]1O)C(=O)O` [SAMP], the Km in data set [4] is 1.1 µM. In the case of `O=C(O)/C=C/C(=O)O` [fumarate], the Km in data set [5] amounted to 80 µM; in data set [6] it was 66 µM.

B1: modern human adenylosuccinate lyase (enzyme, UniProt P30566 1-484, looked up)
chain: T1 sequence (P30566 1-484)
notes: adenylosuccinate lyase (ADSL), modern human (Val429); Expressed from pET-14b with a thrombin-cleavable N-terminal histidine tag; also called hADSL; native hADSL; source: E. coli Rosetta2 (DE3), purified (HisTrap, thrombin cleavage, benzamidine-sepharose, Superdex 200); not shown: histidine tag, N-terminal, cleaved
As for B1, the K0.5 in “purified protein” (forward reaction, positive cooperativity, Hill coefficient 1.6) is reported as 1.1 µM. Moreover, the “stoichiometry N” value in [7] was found to be 4.

B2: hADSL (modern human adenylosuccinate lyase) (Homo sapiens; R426H) (protein)
chain: T1 sequence (P30566 1-484) with R426H
notes: N-terminal thrombin-cleavable His tag (pET-14b), E. coli Rosetta2 (DE3); tag cut, but kept for the domain 3 mutants; homotetramer; Val429
As for B2, the K0.5 in the data set “purified protein” (setting [9]) was 0.75 ± 0.06 µM.

B3: hADSL (modern human adenylosuccinate lyase) (Homo sapiens; D422Y) (protein)
chain: T1 sequence (P30566 1-484) with D422Y
notes: as for B2
Turning to B3, the K0.5 in “purified protein” (setting [9]) came to 0.36 ± 0.03 µM.

B4: Neanderthal adenylosuccinate lyase (enzyme)
chain: T1 sequence (P30566 1-484) with V429A
notes: Expressed from pET-14b with a thrombin-cleavable N-terminal histidine tag; also called nADSL; ancestral Ala429 ADSL variant; source: E. coli Rosetta2 (DE3), purified (HisTrap, thrombin cleavage, benzamidine-sepharose, Superdex 200); not shown: histidine tag, N-terminal, cleaved
For B4, the “stoichiometry N” value in data set [8] was found to be 4.

Source of the values: PMC6301967, “Molecular comparison of Neanderthal and Modern Human adenylosuccinate lyase” (Scientific Reports, 2018).
